Experimental data: ChEMBL document CHEMBL1909046, “DrugMatrix in vitro pharmacology data”

Key:
[1] = DRUGMATRIX: Sodium/nucleoside co-transporter radioligand binding (ligand: nitrobenzylthioinosine); type: cell membranes, Cavia porcellus, Dunkin-Hartley, Cerebral cortex, Membrane; conditions: Not Active = under 50% inhibition at 10 µM
[2] = biological target: Vascular endothelial growth factor receptor 1 (Homo sapiens, UniProt P17948); type: cell-based; conditions: huvec; also: in other assays of this panel Not Active means under 50% inhibition at 10 µM
Vasopressin V1a receptor = Vasopressin V1a receptor (Homo sapiens, UniProt P37288); type: cell membranes, Membrane; conditions: hek293; also: in other assays of this panel Not Active means under 50% inhibition at 10 µM
[3] = DRUGMATRIX: GABAA, Flunitrazepam, Central radioligand binding (ligand: [3H] Flunitrazepam); type: cell membranes, Rattus norvegicus, Wistar, Brain, Membrane; conditions: Not Active = under 50% inhibition at 10 µM
[4] = biological target: T1, 3-hydroxy-3-methylglutaryl-coenzyme A reductase (Homo sapiens, UniProt P04035); parameters: species or system Escherichia coli;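 also: enzyme inhibition assay of HMG-CoA reductase using radiolabeled [14C]HMG-CoA as substrate; in other assays of this panel Not Active means under 50% inhibition at 10 µM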
T1 sequence (P04035 whole entry): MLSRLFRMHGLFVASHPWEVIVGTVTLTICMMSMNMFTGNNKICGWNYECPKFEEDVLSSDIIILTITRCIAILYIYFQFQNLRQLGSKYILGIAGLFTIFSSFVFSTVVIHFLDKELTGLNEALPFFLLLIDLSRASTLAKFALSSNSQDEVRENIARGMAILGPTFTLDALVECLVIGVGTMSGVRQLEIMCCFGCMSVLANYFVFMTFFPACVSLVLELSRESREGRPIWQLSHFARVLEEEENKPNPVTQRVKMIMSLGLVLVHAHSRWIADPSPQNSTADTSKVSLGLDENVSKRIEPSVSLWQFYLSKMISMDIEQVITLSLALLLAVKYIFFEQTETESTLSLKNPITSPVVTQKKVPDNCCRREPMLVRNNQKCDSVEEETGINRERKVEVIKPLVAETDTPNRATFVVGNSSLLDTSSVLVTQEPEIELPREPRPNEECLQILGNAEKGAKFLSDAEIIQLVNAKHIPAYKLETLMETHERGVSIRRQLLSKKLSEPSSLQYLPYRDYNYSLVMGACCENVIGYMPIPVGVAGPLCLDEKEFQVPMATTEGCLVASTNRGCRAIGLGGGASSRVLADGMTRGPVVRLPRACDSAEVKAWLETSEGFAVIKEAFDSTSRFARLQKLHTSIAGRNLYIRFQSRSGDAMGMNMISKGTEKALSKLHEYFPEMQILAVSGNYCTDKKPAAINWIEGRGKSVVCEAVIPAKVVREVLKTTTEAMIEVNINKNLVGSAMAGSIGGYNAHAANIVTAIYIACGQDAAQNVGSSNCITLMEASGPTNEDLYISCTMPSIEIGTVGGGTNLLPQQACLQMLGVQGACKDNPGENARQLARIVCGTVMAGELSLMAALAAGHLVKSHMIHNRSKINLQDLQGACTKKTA

[5] = biological target: T2, Muscarinic acetylcholine receptor M2 (Homo sapiens, UniProt P08172); type: cell membranes, CHO-K1, Membrane; conditions: cho-k1; also: in other assays of this panel Not Active means under 50% inhibition at 10 µM
T2 sequence (P08172 whole entry): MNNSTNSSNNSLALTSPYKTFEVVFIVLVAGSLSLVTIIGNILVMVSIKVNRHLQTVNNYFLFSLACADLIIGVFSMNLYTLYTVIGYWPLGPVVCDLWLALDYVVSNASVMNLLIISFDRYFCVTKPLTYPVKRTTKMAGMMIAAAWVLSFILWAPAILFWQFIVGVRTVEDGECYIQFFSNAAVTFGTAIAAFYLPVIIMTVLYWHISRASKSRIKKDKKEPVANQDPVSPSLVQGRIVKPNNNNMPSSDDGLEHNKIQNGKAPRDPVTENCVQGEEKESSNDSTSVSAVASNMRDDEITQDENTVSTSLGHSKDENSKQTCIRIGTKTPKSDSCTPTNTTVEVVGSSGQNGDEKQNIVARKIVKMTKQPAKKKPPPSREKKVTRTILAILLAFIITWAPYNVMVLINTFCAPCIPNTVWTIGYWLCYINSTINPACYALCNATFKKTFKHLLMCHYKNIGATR

[6] = biological target: T3, Muscarinic acetylcholine receptor M5 (Homo sapiens, UniProt P08912); type: cell membranes, CHO-K1, Membrane; conditions: cho-k1; also: in other assays of this panel Not Active means under 50% inhibition at 10 µM
T3 sequence (P08912 whole entry): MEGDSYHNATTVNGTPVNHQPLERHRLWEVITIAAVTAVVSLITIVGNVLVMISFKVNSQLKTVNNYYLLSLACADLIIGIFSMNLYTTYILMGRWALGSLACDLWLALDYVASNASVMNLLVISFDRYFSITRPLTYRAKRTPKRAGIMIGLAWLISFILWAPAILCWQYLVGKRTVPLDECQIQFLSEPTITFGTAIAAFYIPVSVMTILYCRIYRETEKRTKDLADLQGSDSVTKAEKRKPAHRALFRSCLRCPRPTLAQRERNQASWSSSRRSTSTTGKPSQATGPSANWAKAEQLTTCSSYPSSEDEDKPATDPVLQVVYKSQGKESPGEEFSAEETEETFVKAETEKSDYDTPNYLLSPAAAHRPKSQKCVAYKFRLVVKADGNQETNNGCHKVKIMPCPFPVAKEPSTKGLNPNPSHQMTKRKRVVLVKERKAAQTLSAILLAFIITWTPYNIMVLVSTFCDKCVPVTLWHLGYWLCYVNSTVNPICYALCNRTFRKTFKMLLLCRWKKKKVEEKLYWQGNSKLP

[7] = biological target: Kappa-type opioid receptor (Homo sapiens, UniProt P41145); test: DRUGMATRIX: Opiate kappa (OP2, KOP) radioligand binding (ligand: [3H] Diprenorphine); type: cell membranes, HEK293, Membrane; conditions: hek293; Not Active = under 50% inhibition at 10 µM
Caspase-1 = biological target: T4, Caspase-1 (Homo sapiens, UniProt P29466); parameters: species or system Escherichia coli
T4 sequence (P29466 whole entry): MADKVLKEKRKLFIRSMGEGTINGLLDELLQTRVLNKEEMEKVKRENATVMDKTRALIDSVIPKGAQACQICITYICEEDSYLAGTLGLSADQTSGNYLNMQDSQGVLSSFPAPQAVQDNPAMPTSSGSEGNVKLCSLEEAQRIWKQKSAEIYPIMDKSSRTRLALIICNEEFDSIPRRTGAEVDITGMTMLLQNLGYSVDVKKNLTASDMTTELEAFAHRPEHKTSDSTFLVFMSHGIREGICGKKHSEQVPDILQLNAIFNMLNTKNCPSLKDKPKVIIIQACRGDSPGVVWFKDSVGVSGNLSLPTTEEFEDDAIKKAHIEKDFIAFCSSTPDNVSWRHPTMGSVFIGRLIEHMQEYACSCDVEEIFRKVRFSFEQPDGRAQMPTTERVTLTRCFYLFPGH

[8] = biological target: Mitogen-activated protein kinase 14 (Homo sapiens, UniProt Q16539); parameters: species or system Escherichia coli
Mitogen-activated protein kinase 14, sequence (Q16539 whole entry): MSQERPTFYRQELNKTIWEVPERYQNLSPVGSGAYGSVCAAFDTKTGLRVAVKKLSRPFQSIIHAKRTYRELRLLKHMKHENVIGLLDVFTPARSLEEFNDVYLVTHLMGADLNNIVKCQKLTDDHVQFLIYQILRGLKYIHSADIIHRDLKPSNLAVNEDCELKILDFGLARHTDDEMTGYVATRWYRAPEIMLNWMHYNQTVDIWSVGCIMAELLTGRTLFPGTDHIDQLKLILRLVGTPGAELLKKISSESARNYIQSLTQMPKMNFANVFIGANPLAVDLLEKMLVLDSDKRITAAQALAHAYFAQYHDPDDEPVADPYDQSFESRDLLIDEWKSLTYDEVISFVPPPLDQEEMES

Kappa-type opioid receptor, sequence (P41145 whole entry): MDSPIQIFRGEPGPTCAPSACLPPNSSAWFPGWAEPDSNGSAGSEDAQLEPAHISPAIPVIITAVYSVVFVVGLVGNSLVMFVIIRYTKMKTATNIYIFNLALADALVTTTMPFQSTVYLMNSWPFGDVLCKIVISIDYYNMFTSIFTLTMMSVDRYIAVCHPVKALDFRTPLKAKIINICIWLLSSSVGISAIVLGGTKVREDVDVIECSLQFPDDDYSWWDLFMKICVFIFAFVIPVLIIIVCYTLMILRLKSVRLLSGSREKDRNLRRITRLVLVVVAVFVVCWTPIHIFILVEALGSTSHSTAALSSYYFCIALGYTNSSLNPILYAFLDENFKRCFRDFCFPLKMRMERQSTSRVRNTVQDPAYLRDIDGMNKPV
Vasopressin V1a receptor, sequence (P37288 whole entry): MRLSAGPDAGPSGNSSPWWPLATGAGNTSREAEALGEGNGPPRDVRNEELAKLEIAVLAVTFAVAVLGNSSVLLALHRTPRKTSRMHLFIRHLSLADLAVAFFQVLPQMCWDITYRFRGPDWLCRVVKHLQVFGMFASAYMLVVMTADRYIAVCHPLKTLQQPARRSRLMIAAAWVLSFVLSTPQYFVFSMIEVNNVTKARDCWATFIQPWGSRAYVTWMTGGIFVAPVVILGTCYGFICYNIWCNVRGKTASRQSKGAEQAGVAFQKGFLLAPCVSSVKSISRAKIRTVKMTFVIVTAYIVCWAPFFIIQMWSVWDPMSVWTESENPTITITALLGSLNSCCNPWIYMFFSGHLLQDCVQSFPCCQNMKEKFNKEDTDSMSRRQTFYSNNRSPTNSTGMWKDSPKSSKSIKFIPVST
Vascular endothelial growth factor receptor 1, sequence (P17948 whole entry): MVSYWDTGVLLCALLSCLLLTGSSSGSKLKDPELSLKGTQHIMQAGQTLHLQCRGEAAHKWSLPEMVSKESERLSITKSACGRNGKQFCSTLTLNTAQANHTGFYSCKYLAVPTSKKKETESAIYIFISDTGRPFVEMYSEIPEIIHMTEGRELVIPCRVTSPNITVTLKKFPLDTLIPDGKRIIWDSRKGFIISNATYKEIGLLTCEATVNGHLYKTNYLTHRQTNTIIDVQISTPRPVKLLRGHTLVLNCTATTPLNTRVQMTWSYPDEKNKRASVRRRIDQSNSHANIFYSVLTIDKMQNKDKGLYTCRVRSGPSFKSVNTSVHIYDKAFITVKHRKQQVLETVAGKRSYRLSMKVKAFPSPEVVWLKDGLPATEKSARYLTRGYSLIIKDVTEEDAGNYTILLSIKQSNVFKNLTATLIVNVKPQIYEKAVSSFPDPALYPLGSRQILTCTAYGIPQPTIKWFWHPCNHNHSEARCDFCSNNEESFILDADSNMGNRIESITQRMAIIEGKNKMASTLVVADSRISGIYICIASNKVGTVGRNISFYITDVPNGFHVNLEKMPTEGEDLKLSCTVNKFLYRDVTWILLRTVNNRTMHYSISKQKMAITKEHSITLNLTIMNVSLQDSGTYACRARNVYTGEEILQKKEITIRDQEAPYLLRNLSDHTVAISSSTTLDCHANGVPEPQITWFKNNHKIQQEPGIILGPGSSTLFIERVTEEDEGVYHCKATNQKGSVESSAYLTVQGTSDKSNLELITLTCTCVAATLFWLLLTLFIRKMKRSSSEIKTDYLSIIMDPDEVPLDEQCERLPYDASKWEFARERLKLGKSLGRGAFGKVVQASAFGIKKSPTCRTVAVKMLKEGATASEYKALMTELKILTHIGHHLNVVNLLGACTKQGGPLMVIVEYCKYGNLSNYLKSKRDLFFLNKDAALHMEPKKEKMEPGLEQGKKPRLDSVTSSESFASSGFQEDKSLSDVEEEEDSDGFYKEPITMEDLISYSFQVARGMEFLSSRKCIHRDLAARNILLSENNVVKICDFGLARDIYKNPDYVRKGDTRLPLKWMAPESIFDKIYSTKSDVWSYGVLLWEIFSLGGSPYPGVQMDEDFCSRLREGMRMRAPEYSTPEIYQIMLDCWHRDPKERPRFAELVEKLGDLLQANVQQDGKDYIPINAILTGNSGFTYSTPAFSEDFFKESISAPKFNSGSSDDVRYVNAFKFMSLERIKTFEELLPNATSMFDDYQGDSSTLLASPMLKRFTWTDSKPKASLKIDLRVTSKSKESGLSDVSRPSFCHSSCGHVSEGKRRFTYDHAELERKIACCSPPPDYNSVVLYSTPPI

CCC1(c2ccccc2)C(=O)NCNC1=O [PRIMIDONE]
Not Active: IC50 [1] | Ki [1] | IC50 [2] | IC50 (Vasopressin V1a receptor) | IC50 [3] | Ki [3] | IC50 [4] | IC50 [5] | IC50 [6] | IC50 [7] | IC50 (Caspase-1) | IC50 [8]

CCCc1cc(=O)[nH]c(=S)[nH]1 [PROPYLTHIOURACIL]
Not Active: IC50 [1] | Ki [1] | IC50 [2] | IC50 (Vasopressin V1a receptor) | IC50 [3] | Ki [3] | IC50 [4] | IC50 [5] | IC50 [6] | IC50 [7] | IC50 (Caspase-1) | IC50 [8]

COc1ccc(CN(CCN(C)C)c2ccccn2)cc1 [PYRILAMINE]
Not Active: IC50 [1] | Ki [1] | IC50 [2] | IC50 (Vasopressin V1a receptor) | IC50 [3] | Ki [3] | IC50 [4] | IC50 [5] | IC50 [6] | IC50 [7] | IC50 (Caspase-1) | IC50 [8]
